Like-named read-outs stand apart in the source and are kept apart here.
Columns and labels:
Type in all cases: in vivo
[1] = tested on: Erysiphe graminis tritici (powdery mildew); assay: Greenhouse Test 1, foliar spray fungicide screen (POWD MDEW), host wheat; conditions: disease control rating, 400 ppm (+++ at 100 ppm)
[2] = tested on: Pyricularia oryzae (rice blast); conditions: disease control rating, foliar spray, host rice; 400 ppm (+++ at 100 ppm)
[3] = tested on: Puccinia recondita tritici (leaf rust); assay: Greenhouse Test 1, foliar spray fungicide screen (LEAF RUST), host wheat; conditions: disease control rating, 400 ppm (+++ at 100 ppm)
[4] = tested on: Botrytis cinerea (gray mold); assay: Greenhouse Test 1, foliar spray fungicide screen (GRAY MOLD), host grape berries; conditions: disease control rating, 400 ppm (+++ at 100 ppm)
[5] = tested on: Pseudoperonospora cubensis (downy mildew); assay: Greenhouse Test 1, foliar spray fungicide screen (DOWN MDEW), host squash; conditions: disease control rating, 400 ppm (+++ at 100 ppm)
[6] = tested on: Southern corn rootworm (Diabrotica undecimpuctata howardi Barber); assay: Mite/insect screen, soil treatment (CRW); conditions: percent mortality, soil treatment; for mortality at 12 ppm / mortality at 24 ppm: Diabrotica, read-out: CRW RESULTS %
Outline: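 Compounds dissolved in acetone/alcohol (50:50) with Toximul R/S emulsifiers, diluted with water. Soil (15 g, with presoaked corn seed) treated with 1 mL test solution, dried 6–12 h, then five 2–3 instar larvae added; held at 23°C. Percent mortality and phytotoxicity scored after standard exposure periods.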

[7] = tested on: southern armyworm (Spodopetra eridania Cramer); assay: Mite/insect screen, sprayed squash leaves (SAW); conditions: percent mortality; for mortality at 200 ppm / mortality at 400 ppm: Spodoptera eridania, read-out: SAW RESULTS %
Outline: (§1)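 Percent mortality and phytotoxicity are the read-outs, assessed after standard exposure periods. Test solutions, made in 50:50 acetone/alcohol with two sulfonate/nonionic emulsifier blends and diluted in water, are sprayed to runoff on both leaf surfaces, which then dry for one hour.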

[8] = tested on: Twospotted spider mites (Tetranychus urticae Koch); assay: Mite/insect screen, sprayed squash cotyledons (SM); conditions: percent mortality; for mortality at 400 ppm / mortality at 200 ppm: Tetranychus urticae, read-out: SM RESULTS %
Outline: as §1

[9] = tested on: melon aphids (Aphis gossypii Glover); assay: Mite/insect screen, sprayed squash cotyledons (MA); conditions: percent mortality; for mortality at 400 ppm / mortality at 200 ppm: Aphis gossypii, read-out: MA RESULTS %
Outline: as §1

Compound	POWD MDEW [1]	RICE BLAST [2]	LEAF RUST [3]	GRAY MOLD [4]	DOWN MDEW [5]	mortality at 12 ppm ([6]; CRW rate 12.00 ppm)	mortality at 24 ppm ([6]; CRW rate 24.00 ppm)	mortality at 200 ppm ([7]; spray rate 200 ppm)	mortality at 400 ppm ([7]; spray rate 400 ppm)	mortality at 400 ppm ([8]; spray rate 400 ppm)	mortality at 400 ppm ([9]; spray rate 400 ppm)	mortality at 200 ppm ([8]; spray rate 200 ppm)	mortality at 200 ppm ([9]; spray rate 200 ppm)	other results
Fc1cccc2c(OCCc3cccc(C(F)(F)F)c3)ncnc12 [Example 133, 8-fluoro-4-[2-[3-(trifluoromethyl)phenyl]ethoxy]quinazoline]	+++ (+++ = 90-100% control at 100 ppm)	+++ (+++ = 90-100% control at 100 ppm)	+++ (+++ = 90-100% control at 100 ppm)	- (- = 0-19% control at 400 ppm)	+ (+ = 20-89% control at 400 ppm)	0%	100%	0%	0%	100%	100%			CRW RESULTS % ([6]; CRW rate 12.00 ppm): 0%; SAW RESULTS % ([7]; spray rate 200 ppm): 0%
Fc1ccccc1Oc1ccc(CCOc2ncnc3ccccc23)cc1 [Example 162, 4-(2-[4-(2-fluorophenoxy)phenyl]ethoxy]quinazoline]	+++ (+++ = 90-100% control at 100 ppm)	+++ (+++ = 90-100% control at 100 ppm)	+++ (+++ = 90-100% control at 100 ppm)	- (- = 0-19% control at 400 ppm)	+++ (+++ = 90-100% control at 100 ppm)	0%	100%	60%	0%	100%	80%	100%	80%	
c1ccc2c(CCNc3ncnc4ccccc34)cccc2c1 [Example 23, N-[2-(1-naphthyl)ethyl]-4-quinazolinamine]	- (- = 0-19% control at 400 ppm)	+ (+ = 20-89% control at 400 ppm)	+ (+ = 20-89% control at 400 ppm)	- (- = 0-19% control at 400 ppm)	+ (+ = 20-89% control at 400 ppm)	0%	0%	0%	0%	0%	0%	0%	0%	
Oc1cccc(CCOc2ncnc3ccccc23)c1 [Example 111, 4-[2-(3-hydroxyphenyl)ethoxy]quinazoline]	- (- = 0-19% control at 400 ppm)	++ (++ = 90-100% control at 400 ppm)	+ (+ = 20-89% control at 400 ppm)	- (- = 0-19% control at 400 ppm)	+ (+ = 20-89% control at 400 ppm)	0%	0%	0%	0%	0%	0%	0%	0%	
Fc1cccc2c(OCCc3ccc(Cl)cc3)ncnc12 [Example 55, 4-[2-(4-chlorophenyl)ethoxy]-8-fluoroquinazoline]	+++ (+++ = 90-100% control at 100 ppm)	+++ (+++ = 90-100% control at 100 ppm)	+++ (+++ = 90-100% control at 100 ppm)	- (- = 0-19% control at 400 ppm)	+++ (+++ = 90-100% control at 100 ppm)	0%	0%	100%	0%	0%	0%	100%	100%	
CC(COc1ncnc2c(F)cccc12)c1ccc(-c2ccccc2)cc1 (stereo not shown) [Example 199, 8-fluoro-4-[2-(1,1'-biphenyl)4-ylpropoxy]quinazoline]	+++ (+++ = 90-100% control at 100 ppm)	+ (+ = 20-89% control at 400 ppm)	+++ (+++ = 90-100% control at 100 ppm)	- (- = 0-19% control at 400 ppm)	+ (+ = 20-89% control at 400 ppm)									mortality at 12 ppm ([6]; corn rootworm, CRW RATE 12.00 PPM): 0%; mortality at 24 ppm ([6]; corn rootworm, CRW RATE 24.00 PPM): 0%; mortality at 200 ppm ([7]; Southern armyworm, sprayed squash leaves, RATE 200 PPM): 0%; mortality at 400 ppm ([7]; Southern armyworm, sprayed squash leaves, RATE 400 PPM): 60%; mortality at 200 ppm ([8]; twospotted spider mites, sprayed squash cotyledons, RATE 200 PPM): 100%; mortality at 400 ppm ([8]; twospotted spider mites, sprayed squash cotyledons, RATE 400 PPM): 0%; mortality at 200 ppm ([9]; melon aphids, sprayed squash cotyledons, RATE 200 PPM): 100%; mortality at 400 ppm ([9]; melon aphids, sprayed squash cotyledons, RATE 400 PPM): 0%
[3-(3-methoxyphenyl)propyl]quinazoline [Example 72]	++ (++ = 90-100% control at 400 ppm)	+ (+ = 20-89% control at 400 ppm)	+++ (+++ = 90-100% control at 100 ppm)	- (- = 0-19% control at 400 ppm)	++ (++ = 90-100% control at 400 ppm)									CRW RESULTS % ([6]; CRW rate 24.00 ppm): 0%; SAW RESULTS % ([7]; spray rate 400 ppm): 100%; SM RESULTS % ([8]; spray rate 400 ppm): 0%; MA RESULTS % ([9]; spray rate 400 ppm): 0%
Oc1ccc(CCCOc2ncnc3ccccc23)cc1 [Example 121, 4-[3-(4-hydroxyphenyl)propoxy]quinazoline]	- (- = 0-19% control at 400 ppm)	- (- = 0-19% control at 400 ppm)	- (- = 0-19% control at 400 ppm)	- (- = 0-19% control at 400 ppm)	- (- = 0-19% control at 400 ppm)	0%	0%	0%	0%	0%	0%	0%	0%	
Cc1ccc(CCOc2ncnc3c(F)cccc23)cc1 [Example 99]	+++ (+++ = 90-100% control at 100 ppm)	- (- = 0-19% control at 400 ppm)	+++ (+++ = 90-100% control at 100 ppm)	- (- = 0-19% control at 400 ppm)	+++ (+++ = 90-100% control at 100 ppm)	0%	0%	0%	0%	0%	0%	100%	100%	
Cc1cccc2ncnc(NCCc3ccc(Cl)cc3)c12 [Example 36, N-[2-(4-chlorophenyl)ethyl]-5-methyl-4-quinazolinamine]	- (- = 0-19% control at 400 ppm)	+ (+ = 20-89% control at 400 ppm)	- (- = 0-19% control at 400 ppm)	- (- = 0-19% control at 400 ppm)	+ (+ = 20-89% control at 400 ppm)	0%	0%	0%	0%	0%	0%	0%	0%	
CC(C)(C)c1ccc(CCCCOc2ncnc3ccccc23)cc1 [Example 178, 4-[4-[4-(t-butyl)phenyl]butoxy]quinazoline]	++ (++ = 90-100% control at 400 ppm)	- (- = 0-19% control at 400 ppm)	- (- = 0-19% control at 400 ppm)	+ (+ = 20-89% control at 400 ppm)	+ (+ = 20-89% control at 400 ppm)	0%	0%	0%	0%	100%	100%	40%	80%	
Fc1cccc2c(OCCc3ccc(Oc4ccccc4)cc3)ncnc12 [Example 10, 8-fluoro-4-[2-(4-phenoxyphenyl)ethoxy]quinazoline]	+++ (+++ = 90-100% control at 100 ppm)	+++ (+++ = 90-100% control at 100 ppm)	+++ (+++ = 90-100% control at 100 ppm)	- (- = 0-19% control at 400 ppm)	+++ (+++ = 90-100% control at 100 ppm)		0%		100%	0%	0%			

— patent EP0326329B1, “Quinazoline derivatives useful as insecticides” (Dow AgroSciences LLC, priority 1988, dated 1989)
